From ChEMBL document CHEMBL5678804 (Cancer Cell, 2011)

Columns and labels:
[1] = target: Serine/threonine-protein kinase 17A (Homo sapiens, UniProt Q9UEE5); test: Inhibition of human wild type DRAK1 using RB-CTF as substrate preincubated for 2 hrs followed by ATP addition and measured every 2 mins for […] by spectrophotometric analysis
[2] = target: Tyrosine-protein kinase SYK (Homo sapiens, UniProt P43405); test: Inhibition of human wild type SYK using PolyEY as substrate preincubated for 2 hrs followed by ATP addition and measured every 2 mins for […] by spectrophotometric analysis
[3] = target: Inhibitor of nuclear factor kappa-B kinase subunit alpha (Homo sapiens, UniProt O15111); test: Inhibition of human wild type IKK alpha using RBER-CHKtide as substrate preincubated for 2 hrs followed by ATP addition and measured every 2 mins for […] by spectrophotometric analysis
Inhibitor of nuclear factor kappa-B kinase subunit alpha, sequence (O15111 whole entry): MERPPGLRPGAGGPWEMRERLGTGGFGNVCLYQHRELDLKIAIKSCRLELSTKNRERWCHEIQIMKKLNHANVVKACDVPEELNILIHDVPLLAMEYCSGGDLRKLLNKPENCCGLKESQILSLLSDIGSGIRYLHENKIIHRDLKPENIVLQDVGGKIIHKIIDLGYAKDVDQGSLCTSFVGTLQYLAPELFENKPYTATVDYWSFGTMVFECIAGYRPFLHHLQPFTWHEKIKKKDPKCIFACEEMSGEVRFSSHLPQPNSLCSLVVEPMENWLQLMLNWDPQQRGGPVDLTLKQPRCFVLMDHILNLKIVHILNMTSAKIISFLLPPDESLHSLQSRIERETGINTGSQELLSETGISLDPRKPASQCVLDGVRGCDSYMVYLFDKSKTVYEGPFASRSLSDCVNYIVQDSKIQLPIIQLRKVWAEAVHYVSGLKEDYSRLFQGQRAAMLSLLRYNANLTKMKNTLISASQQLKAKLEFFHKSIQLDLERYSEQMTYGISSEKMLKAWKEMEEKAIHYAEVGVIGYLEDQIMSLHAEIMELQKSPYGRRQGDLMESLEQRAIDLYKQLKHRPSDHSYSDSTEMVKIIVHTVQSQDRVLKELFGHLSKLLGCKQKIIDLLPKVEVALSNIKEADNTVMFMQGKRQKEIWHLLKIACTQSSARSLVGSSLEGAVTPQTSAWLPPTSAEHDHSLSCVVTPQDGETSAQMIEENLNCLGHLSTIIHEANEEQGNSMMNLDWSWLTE

[4] = target: Serine/threonine-protein kinase DCLK2 (Homo sapiens, UniProt Q8N568); test: Inhibition of human wild type DCamKL2 using RBER-CHKtide as substrate preincubated for 2 hrs followed by ATP addition and measured every 2 mins for […] by spectrophotometric analysis
TGF-beta receptor type-2 = TGF-beta receptor type-2 (Homo sapiens, UniProt P37173); test: Inhibition of human wild type TGFbetaR2 using RB-S6P as substrate preincubated for 2 hrs followed by ATP addition and measured every 2 mins for […] by spectrophotometric analysis
TGF-beta receptor type-2, sequence (P37173 whole entry): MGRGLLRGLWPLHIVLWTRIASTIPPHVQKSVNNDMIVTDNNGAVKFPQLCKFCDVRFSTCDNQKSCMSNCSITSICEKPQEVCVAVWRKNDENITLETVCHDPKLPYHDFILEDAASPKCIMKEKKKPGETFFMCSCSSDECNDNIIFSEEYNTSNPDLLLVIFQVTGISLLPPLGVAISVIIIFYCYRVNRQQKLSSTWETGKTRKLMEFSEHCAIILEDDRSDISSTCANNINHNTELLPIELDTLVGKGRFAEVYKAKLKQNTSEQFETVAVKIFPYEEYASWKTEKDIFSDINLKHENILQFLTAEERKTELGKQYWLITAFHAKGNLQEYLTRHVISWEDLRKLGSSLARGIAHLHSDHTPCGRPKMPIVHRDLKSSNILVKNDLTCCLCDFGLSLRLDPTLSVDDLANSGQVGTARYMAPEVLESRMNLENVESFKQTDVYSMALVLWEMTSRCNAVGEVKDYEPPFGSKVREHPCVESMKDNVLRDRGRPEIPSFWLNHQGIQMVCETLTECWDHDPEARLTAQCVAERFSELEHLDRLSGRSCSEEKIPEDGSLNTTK

[5] = target: Dual specificity protein kinase CLK1 (Homo sapiens, UniProt P49759); test: Inhibition of human wild type CLK1 using autophos as substrate preincubated for 2 hrs followed by ATP addition and measured every 2 mins for […] by spectrophotometric analysis
[6] = Inhibition of human wild type CDK2/A using RBER-CHKtide as substrate preincubated for 2 hrs followed by ATP addition and measured every 2 mins for […] by spectrophotometric analysis
[7] = target: Glycogen synthase kinase-3 alpha (Homo sapiens, UniProt P49840); test: Inhibition of human wild type GSK3 alpha using SUPT5 754to 837 as substrate preincubated for 2 hrs followed by ATP addition and measured every 2 mins for […] by spectrophotometric analysis
Glycogen synthase kinase-3 alpha, sequence (P49840 whole entry): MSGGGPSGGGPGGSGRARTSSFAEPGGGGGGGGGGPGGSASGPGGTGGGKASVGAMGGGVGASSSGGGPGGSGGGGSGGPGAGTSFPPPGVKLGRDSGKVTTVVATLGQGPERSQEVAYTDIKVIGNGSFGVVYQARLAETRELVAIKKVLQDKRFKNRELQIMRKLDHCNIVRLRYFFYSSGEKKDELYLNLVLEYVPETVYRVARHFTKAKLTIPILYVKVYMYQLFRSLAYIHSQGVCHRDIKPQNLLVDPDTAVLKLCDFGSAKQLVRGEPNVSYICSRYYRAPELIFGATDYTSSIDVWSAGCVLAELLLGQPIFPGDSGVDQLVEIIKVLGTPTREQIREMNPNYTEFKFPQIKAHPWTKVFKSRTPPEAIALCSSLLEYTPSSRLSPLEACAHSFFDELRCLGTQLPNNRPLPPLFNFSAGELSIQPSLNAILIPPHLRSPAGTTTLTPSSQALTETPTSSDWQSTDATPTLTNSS

[8] = target: Mitogen-activated protein kinase 3 (Homo sapiens, UniProt P27361); test: Inhibition of human wild type ERK1 using RBER-CHKtide as substrate preincubated for 2 hrs followed by ATP addition and measured every 2 mins for […] by spectrophotometric analysis
Mitogen-activated protein kinase 3, sequence (P27361 whole entry): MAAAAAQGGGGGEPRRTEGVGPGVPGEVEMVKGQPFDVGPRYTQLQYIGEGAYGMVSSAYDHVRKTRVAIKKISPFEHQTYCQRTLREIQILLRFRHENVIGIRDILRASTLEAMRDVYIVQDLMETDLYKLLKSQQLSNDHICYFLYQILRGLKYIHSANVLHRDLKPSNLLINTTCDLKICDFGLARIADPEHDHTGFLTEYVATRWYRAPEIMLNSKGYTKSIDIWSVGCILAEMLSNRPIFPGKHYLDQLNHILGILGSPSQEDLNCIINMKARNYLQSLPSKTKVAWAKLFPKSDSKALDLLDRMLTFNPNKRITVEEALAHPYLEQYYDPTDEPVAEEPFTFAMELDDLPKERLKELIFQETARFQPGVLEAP

Ephrin type-B receptor 4 = Ephrin type-B receptor 4 (Homo sapiens, UniProt P54760); test: Inhibition of human wild type EPHB4 using PolyEY as substrate preincubated for 2 hrs followed by ATP addition and measured every 2 mins for […] by spectrophotometric analysis
[9] = target: Non-receptor tyrosine-protein kinase TYK2 (Homo sapiens, UniProt P29597); test: Inhibition of human wild type TYK2 using Poly(Ala,Glu,Lys,Tyr)6:2:5:1 as substrate preincubated for 2 hrs followed by ATP addition and measured every 2 mins for […] by spectrophotometric analysis
[10] = target: Serine/threonine-protein kinase D2 (Homo sapiens, UniProt Q9BZL6); test: Inhibition of human wild type PKD2 using RBER-CHKtide as substrate preincubated for 2 hrs followed by ATP addition and measured every 2 mins for […] by spectrophotometric analysis
Serine/threonine-protein kinase D2, sequence (Q9BZL6 whole entry): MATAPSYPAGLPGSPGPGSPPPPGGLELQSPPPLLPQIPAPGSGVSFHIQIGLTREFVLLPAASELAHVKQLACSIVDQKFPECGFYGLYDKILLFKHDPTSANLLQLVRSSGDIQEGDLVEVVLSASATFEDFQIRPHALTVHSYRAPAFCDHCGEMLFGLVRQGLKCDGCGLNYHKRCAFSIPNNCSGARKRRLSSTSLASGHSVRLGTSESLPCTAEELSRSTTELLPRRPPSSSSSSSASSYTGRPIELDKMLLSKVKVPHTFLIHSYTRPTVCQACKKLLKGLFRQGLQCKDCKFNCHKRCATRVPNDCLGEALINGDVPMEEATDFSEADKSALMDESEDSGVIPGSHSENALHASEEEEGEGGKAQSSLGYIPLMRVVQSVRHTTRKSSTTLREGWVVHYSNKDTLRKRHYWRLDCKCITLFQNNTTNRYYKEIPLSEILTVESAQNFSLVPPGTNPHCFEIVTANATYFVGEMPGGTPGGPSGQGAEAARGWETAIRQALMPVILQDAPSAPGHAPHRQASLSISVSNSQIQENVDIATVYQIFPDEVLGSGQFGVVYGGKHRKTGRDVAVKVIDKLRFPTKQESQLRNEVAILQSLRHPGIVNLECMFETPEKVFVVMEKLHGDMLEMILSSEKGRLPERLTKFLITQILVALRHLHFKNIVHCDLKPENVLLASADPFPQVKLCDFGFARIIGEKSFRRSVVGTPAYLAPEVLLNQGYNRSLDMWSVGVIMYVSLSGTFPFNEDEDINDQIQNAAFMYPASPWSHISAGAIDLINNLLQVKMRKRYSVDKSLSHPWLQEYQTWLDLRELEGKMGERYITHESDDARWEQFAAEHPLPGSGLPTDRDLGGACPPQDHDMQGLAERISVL

[11] = target: Serine/threonine-protein kinase BRSK1 (Homo sapiens, UniProt Q8TDC3); test: Inhibition of human wild type BRSK1 using RBER-CHKtide as substrate preincubated for 2 hrs followed by ATP addition and measured every 2 mins for […] by spectrophotometric analysis
Serine/threonine-protein kinase BRSK1, sequence (Q8TDC3 whole entry): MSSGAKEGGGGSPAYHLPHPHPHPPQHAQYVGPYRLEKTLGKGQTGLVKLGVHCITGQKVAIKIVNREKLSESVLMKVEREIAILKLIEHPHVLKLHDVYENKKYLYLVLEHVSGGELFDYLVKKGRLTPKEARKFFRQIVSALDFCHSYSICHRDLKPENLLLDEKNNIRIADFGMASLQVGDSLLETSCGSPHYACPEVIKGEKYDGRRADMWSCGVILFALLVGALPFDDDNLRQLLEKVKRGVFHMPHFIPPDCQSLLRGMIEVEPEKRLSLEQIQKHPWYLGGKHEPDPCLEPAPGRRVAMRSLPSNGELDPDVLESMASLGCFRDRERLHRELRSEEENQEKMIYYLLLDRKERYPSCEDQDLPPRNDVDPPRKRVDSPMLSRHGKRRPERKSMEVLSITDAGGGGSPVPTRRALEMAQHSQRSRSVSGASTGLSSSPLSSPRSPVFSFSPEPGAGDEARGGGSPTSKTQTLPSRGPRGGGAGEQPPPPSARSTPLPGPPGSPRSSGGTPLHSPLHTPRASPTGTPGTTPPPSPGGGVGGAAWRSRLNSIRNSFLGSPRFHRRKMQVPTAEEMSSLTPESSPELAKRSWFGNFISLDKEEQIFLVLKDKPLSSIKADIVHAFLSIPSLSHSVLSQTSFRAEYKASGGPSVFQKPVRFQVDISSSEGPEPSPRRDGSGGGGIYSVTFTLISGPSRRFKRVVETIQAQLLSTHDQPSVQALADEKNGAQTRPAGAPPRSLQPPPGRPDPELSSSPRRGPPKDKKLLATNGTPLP

[12] = target: Death-associated protein kinase 3 (Homo sapiens, UniProt O43293); test: Inhibition of human wild type ZIPK using RBER-GSK3([…] to […]) as substrate preincubated for 2 hrs followed by ATP addition and measured every 2 mins for […] by spectrophotometric analysis
[13] = target: Insulin receptor-related protein (Homo sapiens, UniProt P14616); test: Inhibition of human wild type IRR using Poly(Ala,Glu,Lys,Tyr)6:2:5:1 as substrate preincubated for 2 hrs followed by ATP addition and measured every 2 mins for […] by spectrophotometric analysis
[14] = target: RAC-alpha serine/threonine-protein kinase (Homo sapiens, UniProt P31749); test: Inhibition of human wild type AKT1 using RBER-GSK3([…] to […]) as substrate preincubated for 2 hrs followed by ATP addition and measured every 2 mins for […] by spectrophotometric analysis
[15] = target: Serine/threonine-protein kinase Nek1 (Homo sapiens, UniProt Q96PY6); test: Inhibition of human wild type NEK1 using RBER-CHKtide as substrate preincubated for 2 hrs followed by ATP addition and measured every 2 mins for […] by spectrophotometric analysis
[16] = target: Tyrosine-protein kinase ZAP-70 (Homo sapiens, UniProt P43403); test: Inhibition of human wild type ZAP70 using PolyEY as substrate preincubated for 2 hrs followed by ATP addition and measured every 2 mins for […] by spectrophotometric analysis
[17] = target: Protein kinase C beta type (Homo sapiens, UniProt P05771); test: Inhibition of human wild type PKCbeta1 using 3xChocktide-PKC(19to 31) as substrate preincubated for 2 hrs followed by ATP addition and measured every 2 mins for […] by spectrophotometric analysis
[18] = target: Serine/threonine-protein kinase 33 (Homo sapiens, UniProt Q9BYT3); test: Inhibition of human wild type STK33 using RBER-CHKtide as substrate preincubated for 2 hrs followed by ATP addition and measured every 2 mins for […] by spectrophotometric analysis
Aurora kinase A = Aurora kinase A (Homo sapiens, UniProt O14965); test: Inhibition of human wild type AuroraA using bio-4xCHKT as substrate preincubated for 2 hrs followed by ATP addition and measured every 2 mins for […] by spectrophotometric analysis
Aurora kinase A, sequence (O14965 whole entry): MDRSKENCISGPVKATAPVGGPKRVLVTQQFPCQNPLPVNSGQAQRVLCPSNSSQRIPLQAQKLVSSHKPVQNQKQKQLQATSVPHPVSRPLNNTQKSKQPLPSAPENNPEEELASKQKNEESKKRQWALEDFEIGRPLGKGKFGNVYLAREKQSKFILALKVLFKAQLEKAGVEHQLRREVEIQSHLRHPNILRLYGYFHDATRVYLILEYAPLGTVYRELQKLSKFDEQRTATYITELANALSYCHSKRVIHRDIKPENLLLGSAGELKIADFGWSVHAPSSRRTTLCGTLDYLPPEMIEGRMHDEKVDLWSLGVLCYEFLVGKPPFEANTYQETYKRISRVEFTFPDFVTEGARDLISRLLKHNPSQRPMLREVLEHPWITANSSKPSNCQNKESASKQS

[19] = target: Tyrosine-protein kinase ITK/TSK (Homo sapiens, UniProt Q08881); test: Inhibition of human wild type ITK using PolyEY as substrate preincubated for 2 hrs followed by ATP addition and measured every 2 mins for […] by spectrophotometric analysis
Tyrosine-protein kinase ITK/TSK, sequence (Q08881 whole entry): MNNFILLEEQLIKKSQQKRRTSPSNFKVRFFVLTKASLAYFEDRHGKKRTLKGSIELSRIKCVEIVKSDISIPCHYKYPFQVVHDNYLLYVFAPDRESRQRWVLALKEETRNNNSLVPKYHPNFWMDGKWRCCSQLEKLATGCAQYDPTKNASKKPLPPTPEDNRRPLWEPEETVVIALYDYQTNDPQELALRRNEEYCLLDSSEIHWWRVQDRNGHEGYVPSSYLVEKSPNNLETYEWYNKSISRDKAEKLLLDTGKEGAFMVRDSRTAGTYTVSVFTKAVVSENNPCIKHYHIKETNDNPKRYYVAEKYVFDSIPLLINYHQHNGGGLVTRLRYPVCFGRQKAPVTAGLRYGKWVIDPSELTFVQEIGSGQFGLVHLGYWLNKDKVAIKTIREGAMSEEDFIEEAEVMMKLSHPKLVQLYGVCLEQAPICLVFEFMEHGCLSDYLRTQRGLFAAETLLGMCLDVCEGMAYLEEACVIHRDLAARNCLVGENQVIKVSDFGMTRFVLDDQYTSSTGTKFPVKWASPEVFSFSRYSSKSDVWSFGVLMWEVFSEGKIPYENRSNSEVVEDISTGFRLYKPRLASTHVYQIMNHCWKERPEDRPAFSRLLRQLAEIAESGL

[20] = target: Tyrosine-protein kinase CSK (Homo sapiens, UniProt P41240); test: Inhibition of human wild type CSK using PolyEY as substrate preincubated for 2 hrs followed by ATP addition and measured every 2 mins for […] by spectrophotometric analysis
[21] = target: Dual specificity mitogen-activated protein kinase kinase 1 (Homo sapiens, UniProt Q02750); test: Inhibition of human wild type MEK1 using ERK2-KR as substrate preincubated for 2 hrs followed by ATP addition and measured every 2 mins for […] by spectrophotometric analysis
[22] = target: Serine/threonine-protein kinase Sgk1 (Homo sapiens, UniProt O00141); test: Inhibition of human wild type SGK1 using RBER-GSK3([…] to […]) as substrate preincubated for 2 hrs followed by ATP addition and measured every 2 mins for […] by spectrophotometric analysis
[23] = target: Tyrosine-protein kinase Mer (Homo sapiens, UniProt Q12866); test: Inhibition of human wild type MER using PolyEY as substrate preincubated for 2 hrs followed by ATP addition and measured every 2 mins for […] by spectrophotometric analysis
[24] = target: Mitogen-activated protein kinase 1 (Homo sapiens, UniProt P28482); test: Inhibition of human wild type ERK2 using RBER-CHKtide as substrate preincubated for 2 hrs followed by ATP addition and measured every 2 mins for […] by spectrophotometric analysis

CNC(=O)c1cc(Oc2ccc(NC(=O)Nc3cc(C(C)(C)C)nn3-c3ccc4ncccc4c3)c(F)c2)ccn1 [REBASTINIB]
IC50 [1]: > 1000 nM
IC50 [2]: 160 nM
IC50 [3]: > 1000 nM
IC50 [4]: > 1000 nM
IC50 (TGF-beta receptor type-2): > 1000 nM
IC50 [5]: > 1000 nM
IC50 [6]: > 1000 nM
IC50 [7]: > 1000 nM
IC50 [8]: > 1000 nM
IC50 (Ephrin type-B receptor 4): 64 nM
IC50 [9]: > 1000 nM
IC50 [10]: > 1000 nM
IC50 [11]: > 1000 nM
IC50 [12]: > 1000 nM
IC50 [13]: > 1000 nM
IC50 [14]: > 1000 nM
IC50 [15]: > 1000 nM
IC50 [16]: > 1000 nM
IC50 [17]: > 1000 nM
IC50 [18]: > 1000 nM
IC50 (Aurora kinase A): > 5000 nM
IC50 [19]: 270 nM
IC50 [20]: 25 nM
IC50 [21]: > 1000 nM
IC50 [22]: > 1000 nM
IC50 [23]: 7.6 nM
IC50 [24]: > 1000 nM
